Experimental data published in publication PMC9458111, “New 1,2,3-Triazole-Coumarin-Glycoside Hybrids and Their 1,2,4-Triazolyl Thioglycoside Analogs Targeting Mitochondria Apoptotic Pathway: Synthesis, Anticancer Activity and Docking Simulation” (Molecules, 2022).

Assays:
[1] = tested on: Bcl-2 protein in MCF-7 cells; test: Bcl-2 protein level in MCF-7 cells (ELISA); assay type: cell-based, human; settings: MCF-7, 19.6 µM (IC50), 24 h
Protocol: Referring to the cytotoxicity results, the 1,2,4-triazole-thioglycoside derivative 10 has a mitochondria-apoptotic effect on breast cancer cells through reduction of MTT by a mitochondrial enzyme. […] Along with that, such derivative elevated the release of cytochrome c into the cytosol in the treated MCF-7, in comparison with untreated one from 0.176 to 0.766 ng/ml due to disturbing mitochondrial outer membrane permeability (MOMP). In addition, the target 10 achieved better results than those afforded by from the standard 5-fluorouracil. Moreover, the level of caspase-7 was elevated in treated cells with the target 10 rather than that with 5-fluorouracil or the untreated cells as shown in Figure 4.
Bcl-2 (ng/mL) in the samples and standards were estimated as reported. A biotin-conjugated antibody was added followed by streptavidin-HRP. The reaction is then terminated by adding acid and absorbance was measured at 450 nm.
Figure 4 Levels of Bax, Bcl-2, Bax/Bcl-2 ratio, cytochrome c and caspase-7 protein in MCF-7 cells after treatment with compound 10 and the standard drug for 24 h compared with the untreated one, 5-flu: 5-fluorouracil as a reference drug.

MCF-7 cells [2] = test: Apoptosis detection, Annexin V-FITC flow cytometry; assay type: cell-based, human
Protocol: (§1) Cell cycle analysis and apoptosis detection were carried out by flow cytometry. MCF-7 cells were seeded at 1–5 × 10^4 and incubated at 37 °C, 5% CO2 overnight. After treatment with the tested compound 10, for 24 h, cell pellets were collected and centrifuged (300× g, 5 min). For cell cycle analysis, cell pellets were fixed with 70% ethanol on ice for 15 min and collected again [54]. The collected pellets were incubated with propidium iodide (PI) staining solution at room temperature for 1 h. Apoptosis detection was performed by Annexin V-FITC apoptosis detection kit (BioVision, Inc, Milpitas, CA, USA) following the manufacturer’s protocol. The samples were analyzed using FACS Calibur flow cytometer (BD Biosciences, San Jose, CA).
(§2) Figure 5 Cell cycle analysis and the effect of the target 10 on the percentage of V-FITC-positive annexin staining in MCF-7 cells in comparison with the control. TEXT PRINTED IN THE PICTURE: (C) cpd10: MCF7: 6.07%; MCF7: 18.11%; MCF7: 25.44% | (D) cpd10: MCF7: %DIP G1 41.96%; MCF7: %DIP G2/M 6.61%; MCF7: %DIP S 51.43%

MCF-7 cells [3] = test: Cell cycle analysis, PI flow cytometry; assay type: cell-based, human
Protocol: as §1, §2

For `CCn1c(COc2ccc3c(-c4ccccc4)cc(=O)oc3c2)nnc1SC1OCC(O)C(O)C1O` [Compound 10, 4-Phenyl-7-((4-ethyl-5-(1-(β-D-xylopyranosyl)thio)-4H-1,2,4-triazol-3-yl)meth-oxy)-2H-chromen-2-one], the “Downregulation of anti-apoptotic Bcl-2 protein versus untreated cells” value [1] was 5.3 folds, the Secondary late apoptosis (MCF-7 cells [2]; MCF-7, 19.6 µM (IC50), 24 h, untreated 0.18) was 18.11% and the Early apoptosis (MCF-7 cells [2]; MCF-7, 19.6 µM (IC50), 24 h, untreated 0.47) was 25.44%. For the same compound, the “Annexin V-FITC staining, third percentage not named in the picture text” value (MCF-7 cells [2]; MCF-7, Figure 5C) was 6.07%, the “Increase in the cell percentage at the S phase versus untreated” value (MCF-7 cells [3]; MCF-7, 19.6 µM (IC50), 24 h) was 1.7 fold and the “Cell percentage at the S phase” value (MCF-7 cells [3]; MCF-7, 19.6 µM (IC50), 24 h, untreated 29.63%) was 51.43%. The “%DIP G1” value (MCF-7 cells [3]; MCF-7, Figure 5D) was 41.96%, the “%DIP G2/M” value (MCF-7 cells [3]; MCF-7, Figure 5D) was 6.61% and the melting point was 178 to 179 °C.
